Test system: HEK-293, SH-SY5Y, primary human keratinocytes, THP-1 differentiated with PMA
Experiment: Transcriptomics (microarray) after anatabine treatment of 4 cell systems
Assay type: cell-based
Settings: for Fold Change TXNRD1: gene TXNRD1; for Fold Change ZBTB21: gene ZBTB21; for Fold Change ZFAND2A: gene ZFAND2A
Experimental: To investigate the signalling pathways triggered by anatabine, 4 cell systems (HEK-293, SH-SY5Y, primary human keratinocytes, THP-1 differentiated with PMA) were treated with 4 concentrations of anatabine (100, 200, 300, 400 μM) for 6 hours, after which transcriptomics measurements were performed.
HEK-293 is a human embryonic kidney cell line devoid of nicotinic receptors. It can be relatively easily transfected and therefore used as a tool to express various subtypes of nicotinic receptors or reporter genes such as NRF2-driven luciferase, which were also used in this study. HEK-293 were seeded in a cell culture medium consisting of EMEM, 10% FBS, 1% NEAA, 1% Sodium Pyruvate and 1% PenStrep. 60,000 cells were seeded per well of a 96-well plate.
SH-SY5Y is a human bone marrow neuroblastoma cell line that has been used by researchers to investigate the potential anti-inflammatory effect of anatabine. SH-SY5Y were seeded in a cell culture medium consisting of 50% EMEM and 50% Ham's F12 nutrient and including 10% FBS, 1% PenStrep and 1% L-glutamine. 15,000 cells were seeded per well of a 96-well plate.
Primary human keratinocytes have been included as a relevant cell system for skin. The batch of keratinocytes was selected in order to have healthy, non-smoker, 20-60 years old, Caucasian donors. The keratinocytes were seeded in a cell culture medium consisting of KGM-Gold Keratinocyte Growth Medium. 17,500 cells were seeded per well of a 96-well plate.
The human leukaemia-derived monocytic cell line THP-1, is the most widely used in vitro model for primary human macrophage investigations. THP-1 cells were seeded in a cell culture medium consisting of RPMI, 10% FBS and 1% PenStrep and in the presence of 40 ng/ml phorbol 12-myristate 13-acetate (PMA). 100,000 cells were seeded per well of a 96-well plate, having a total volume of […] per well. 48 hours later the medium was changed to the same culture medium but without PMA, and the culture was left to rest for 24 h before treatment.
All four cell systems were seeded in 96 well plates at a total volume of 190 μl per well to allow for a 20× compound stimulation with a volume of 10 μL. 24 hours after seeding—or in the case of THP-1, 24 h after changing to non-PMA medium—four cell systems were stimulated with anatabine (prepared at 20× the corresponding target concentration) to obtain a final molar concentration of 100, 200, 300, 400 μM anatabine.
In order to generate the transcriptomics data, the four cell systems were exposed to various concentrations of anatabine (100, 200, 300, 400 μM) for 6 hours. The transcriptome of the cells was analysed by a microarray-based analysis.
The cells were lysed using RLT BUFFER (Qiagen Hilden, Germany) for all cell types except the keratinocytes which were lysed with QIAZOL LYSIS REAGENT (Qiagen). RNA isolation was performed with RNEASY MICRO KIT (Qiagen). RNA quantification was assessed with a NANODROP 1000 (ThermoFisher Waltham, MA, USA) and quality of the total RNA was verified acquiring a profile with a 2100 BIOANALYZER (Agilent Technologies, Santa Clara, CA, USA), requiring an RIN number greater than 6.0. 50 ng of total RNA were processed as described in the TECAN/NUGEN OVATION RNA AMPLIFICATION SYSTEM V2 (Tecan Mannedorf, Switzerland). Human Genome U133 Plus 2.0 array were used for hybridization on a THERMOFISHER OVEN 645, washed on THERMOFISHER GENECHIP™ FLUIDICS STATIONS 450DX (protocol FS450-0004) and scanned on a THERMOFISHER GENECHIP™ SCANNER 3000 7G.
Quality control check of all chips was done with the BIOCONDUCTOR affyPLM R package version 1.64. Following quality control procedures, differential gene expression analysis was performed using the BIOCONDUCTOR LIMMA R package version 3.44.3. Pairwise comparisons at the gene level, called systems response profiles (SRP), were computed by comparing each concentration-treatment with its respective vehicle control. […]

[1] = cell system THP1, anatabine 200 μM
[2] = cell system THP1, anatabine 300 μM
[3] = cell system THP1, anatabine 400 μM
[4] = cell system HEK293, anatabine 100 μM
[5] = cell system HEK293, anatabine 200 μM
[6] = cell system HEK293, anatabine 300 μM
[7] = cell system HEK293, anatabine 400 μM
[8] = cell system KEAT, anatabine 100 μM
[9] = cell system KEAT, anatabine 200 μM
[10] = cell system KEAT, anatabine 300 μM
[11] = cell system KEAT, anatabine 400 μM
[12] = cell system SHSY5Y, anatabine 100 μM
[13] = cell system SHSY5Y, anatabine 200 μM
[14] = cell system SHSY5Y, anatabine 300 μM
[15] = cell system SHSY5Y, anatabine 400 μM
[16] = cell system THP1, anatabine 100 μM

Question: Which “Fold Change” value (G0S2 gene, SHSY5Y, anatabine 200 μM) does the source give for `C1=CCC(c2cccnc2)NC1` (racemic) [anatabine, 1,2,3,6-Tetrahydro-2,3′-bipyridine] here?
Answer: −0.07408

Question: What about the “Fold Change” value (G0S2 gene, SHSY5Y, anatabine 300 μM) of the same molecule?
Answer: −0.1621

Question: What about the “Fold Change” value (G0S2 gene, SHSY5Y, anatabine 400 μM) of the same molecule?
Answer: −0.6623

Question: And the “Fold Change” value (G0S2 gene, THP1, anatabine 100 μM)?
Answer: −0.1613

Question: And the “Fold Change” value (G0S2 gene, THP1, anatabine 200 μM)?
Answer: −0.07473

Question: What about the “Fold Change” value (G0S2 gene, THP1, anatabine 300 μM) of the same molecule?
Answer: −0.2674

Question: What about the “Fold Change” value (G0S2 gene, THP1, anatabine 400 μM) of the same molecule?
Answer: −0.3675

Question: What about the “Fold Change” value (GCLM gene, HEK293, anatabine 100 μM) of the same molecule?
Answer: 0.1086

Question: And the “Fold Change” value (GCLM gene, HEK293, anatabine 200 μM)?
Answer: 0.5976

Question: And the “Fold Change” value (GCLM gene, HEK293, anatabine 300 μM)?
Answer: 0.7652

Question: What about the “Fold Change” value (GCLM gene, HEK293, anatabine 400 μM) of the same molecule?
Answer: 1.165

Question: What about the “Fold Change” value (GCLM gene, KEAT, anatabine 100 μM) of the same molecule?
Answer: 0.5698

Question: What about the “Fold Change” value (GCLM gene, KEAT, anatabine 200 μM) of the same molecule?
Answer: 0.8549

Question: What about the “Fold Change” value (GCLM gene, KEAT, anatabine 300 μM) of the same molecule?
Answer: 1.582

Question: And the “Fold Change” value (GCLM gene, KEAT, anatabine 400 μM)?
Answer: 1.567

Question: And the “Fold Change” value (GCLM gene, SHSY5Y, anatabine 100 μM)?
Answer: 0.3907

Question: What about the “Fold Change” value (GCLM gene, SHSY5Y, anatabine 200 μM) of the same molecule?
Answer: 0.7053

Question: And the “Fold Change” value (GCLM gene, SHSY5Y, anatabine 300 μM)?
Answer: 1.629

Question: And the “Fold Change” value (GCLM gene, SHSY5Y, anatabine 400 μM)?
Answer: 2.292

Question: What about the “Fold Change” value (GCLM gene, THP1, anatabine 100 μM) of the same molecule?
Answer: 0.2992

Question: What about the “Fold Change” value (GCLM gene, THP1, anatabine 200 μM) of the same molecule?
Answer: 0.7816

Question: And the “Fold Change” value (GCLM gene, THP1, anatabine 300 μM)?
Answer: 1.645

Question: What about the “Fold Change” value (GCLM gene, THP1, anatabine 400 μM) of the same molecule?
Answer: 2.36

Question: And the “Fold Change” value (HMOX1 gene, HEK293, anatabine 100 μM)?
Answer: 0.7745

Question: And the “Fold Change” value (HMOX1 gene, HEK293, anatabine 200 μM)?
Answer: 1.877

Question: What about the “Fold Change” value (HMOX1 gene, HEK293, anatabine 300 μM) of the same molecule?
Answer: 2.27

Question: And the “Fold Change” value (HMOX1 gene, HEK293, anatabine 400 μM)?
Answer: 3.142

Question: What about the “Fold Change” value (HMOX1 gene, KEAT, anatabine 100 μM) of the same molecule?
Answer: 3.914

Question: What about the “Fold Change” value (HMOX1 gene, KEAT, anatabine 200 μM) of the same molecule?
Answer: 4.283

Question: What about the “Fold Change” value (HMOX1 gene, KEAT, anatabine 300 μM) of the same molecule?
Answer: 5.733

Question: What about the “Fold Change” value (HMOX1 gene, KEAT, anatabine 400 μM) of the same molecule?
Answer: 5.633

Question: And the “Fold Change” value (HMOX1 gene, SHSY5Y, anatabine 100 μM)?
Answer: 0.8699

Question: What about the “NRF2 target genes (HMOX1, GCLM, NQO1, TXNRD1) mRNA” value (four cell lines, 100, 200, 300, 400 μM for 6 hours) of the same molecule?
Answer: dose-dependent increase

Question: What about the “Fold Change TXNRD1” value [1] of the same molecule?
Answer: 0.4137

Question: And the “Fold Change TXNRD1” value [2]?
Answer: 0.8364

Question: And the “Fold Change TXNRD1” value [3]?
Answer: 1.246

Question: And the “Fold Change ZBTB21” value [4]?
Answer: 0.1286

Question: And the “Fold Change ZBTB21” value [5]?
Answer: 0.3704

Question: And the “Fold Change ZBTB21” value [6]?
Answer: 0.3353

Question: And the “Fold Change ZBTB21” value [7]?
Answer: 0.6783

Question: What about the “Fold Change ZBTB21” value [8] of the same molecule?
Answer: 0.4558

Question: What about the “Fold Change ZBTB21” value [9] of the same molecule?
Answer: 0.5643

Question: And the “Fold Change ZBTB21” value [10]?
Answer: 0.9994

Question: And the “Fold Change ZBTB21” value [11]?
Answer: 0.8602

Question: And the “Fold Change ZBTB21” value [12]?
Answer: 0.1782

Question: What about the “Fold Change ZBTB21” value [13] of the same molecule?
Answer: 0.5134

Question: And the “Fold Change ZBTB21” value [14]?
Answer: 0.6287

Question: And the “Fold Change ZBTB21” value [15]?
Answer: 0.9685

Question: And the “Fold Change ZBTB21” value [16]?
Answer: −0.01334

Question: And the “Fold Change ZBTB21” value [1]?
Answer: 0.2576

Question: And the “Fold Change ZBTB21” value [2]?
Answer: 0.3746

Question: And the “Fold Change ZBTB21” value [3]?
Answer: 0.5865

Question: What about the “Fold Change ZFAND2A” value [4] of the same molecule?
Answer: 0.1376

Question: And the “Fold Change ZFAND2A” value [5]?
Answer: 0.3375

Question: And the “Fold Change ZFAND2A” value [6]?
Answer: 0.4979

Question: What about the “Fold Change ZFAND2A” value [7] of the same molecule?
Answer: 0.7014

Question: What about the “Fold Change ZFAND2A” value [8] of the same molecule?
Answer: 0.2592

Question: And the “Fold Change ZFAND2A” value [9]?
Answer: 0.4658

Question: And the “Fold Change ZFAND2A” value [10]?
Answer: 3.354

Question: And the “Fold Change ZFAND2A” value [11]?
Answer: 1.766

Question: What about the “Fold Change ZFAND2A” value [12] of the same molecule?
Answer: 0.09166

Question: What about the “Fold Change ZFAND2A” value [13] of the same molecule?
Answer: 0.3919

Question: What about the “Fold Change ZFAND2A” value [14] of the same molecule?
Answer: 0.5328

Question: And the “Fold Change ZFAND2A” value [15]?
Answer: 1.066

Question: What about the “Fold Change ZFAND2A” value [16] of the same molecule?
Answer: 0.1252

Question: What about the “Fold Change ZFAND2A” value [1] of the same molecule?
Answer: 0.2497

Question: And the “Fold Change ZFAND2A” value [2]?
Answer: 0.5677

Question: What about the “Fold Change ZFAND2A” value [3] of the same molecule?
Answer: 1.236

Source: US20260224547A1, “COMPOSITIONS COMPRISING ANATABINE AND USES THEREOF” (Philip Morris Products S.A., priority 2021, published 2026)
